Key:
[1] = test system: neural organoids; assay: Cleaved caspase-3 immunofluorescence in adjacent neural organoids of the assembloids; format: cell-based, human; settings: 200 nM panobinostat, neural organoids fused to DIPG organoids
Protocol: Organoids and assembloids were fixed in 4% PFA for 2 hours at 4° C. They were then washed three times with DPBS, for 15 min each, and transferred to a 30% sucrose solution in DPBS for 24-48 hours at 4° C. Once the organoids or assembloids sank in the sucrose solution, they were embedded in a 1:1 mixture of OCT (Fisher Scientific) and 30% sucrose in DPBS. They were then snap frozen on dry ice and stored at −80° C. A cryostat (Leica) was used to cut 50 μm sections for immunostaining.
Cryosections were washed with DPBS to remove excess OCT, then permeabilized with 0.25% Triton X-100 (Thermo Fisher) in DPBS (DPBS-T) for 1 hour and blocked with 5% goat serum (Gibco), 5% bovine serum albumin (BSA, Sigma), and 0.5% Triton X-100 in DPBS for 3 hours, all at RT. Samples were stained with primary antibodies for GFP, (1:200, Invitrogen a11122), cleaved caspase-3 (1:400, Cell Signaling 9661), and histone H3 mutated K27M (1:400, Abcam ab190631). Primary antibodies were diluted in 2.5% goat serum, 2.5% BSA, and 0.5% Triton X-100 in DPBS and incubated with the samples overnight at 4° C., Next, the samples were washed with DPBS-T (3×30 min, RT) and incubated with secondary antibody Alexa Fluor 488 (1:500, Invitrogen, A-11034) and 4′,6-diamidino-2-phenylindole (DAPI, 5 mg/mL stock, 1:2000, Invitrogen) in the same antibody dilution solution overnight at 4° C. […]

[2] = Cellulase-mediated removal of residual CNF on extracted neural organoids; settings: 0.5 wt % cellulase, over 72 hours
Protocol: To characterize cellulase-mediated CNF degradation after neural organoid release from the support scaffold, neural organoids were first cultured in 0.5 wt % CNF support bath for 1 day and released through diluting the support bath with DPBS. A 0.5 wt % cellulase (Sigma) solution, made up in neural medium, was filtered through a 0.22 μm filter, warmed to 37° C., and added to the organoids with daily medium changes. Organoids were imaged every day with an epifluorescent microscope (Leica Microsystems, THUNDER Imager 3D Cell Culture). The area of residual CNF on the organoid surface was manually measured with ImageJ (NIH, v.2.3.0/1.53q).

[3] = Cellulase-mediated CNF support scaffold degradation (rheology); settings: range of cellulase concentrations, 0.5 wt % CNF, over time
Protocol: For measurements of cellulase-mediated CNF support scaffold degradation, cellulase (Sigma) was dissolved in DMEM/F12 (Gibco) and added atop 0.5 wt % CNF in a 1:4 ratio by volume to approximate the ratio of media to CNF support within the bioprinting chip. All samples were incubated in a humidified 37° C. incubator for three days. Depending on the downstream measurement, cellulase solutions, as well as non-cellulase containing DMEM/F12 controls, were either changed every day or allowed to incubate over the full three days without a media change.
Viscosity and storage moduli were obtained with an AR-G2 (TA Instruments) stress-controlled rheometer (20 mm 1° cone and plate geometry with a 28 μm gap). To observe the effect of cellulase on the viscosity of CNF over 72 hours, samples were loaded onto the stage at 37° C. for a 5 min time sweep with 1% oscillatory strain and 1 rad/s angular frequency. This was followed by a frequency sweep from 0.1 to 100 Hz at 1% strain. To measure the storage modulus, samples were loaded onto the stage at 2 hours, 4 hours, 6 hours, 24 hours, 48 hours, and 72 hours and subjected to a frequency sweep at 1 rad/s angular frequency.

[4] = test system: neural organoids; assay: Neural organoid viability (calcein AM / ethidium homodimer) after cellulase; format: cell-based, human; settings: 0.5 wt % cellulase treatment over time
Protocol: To characterize viability, organoids were submerged in a solution consisting of DPBS supplemented with 2 μM calcein AM and 4 µM ethidium homodimer for 20 min at 37° C. The samples were washed with DPBS and imaged with an epifluorescent microscope (Leica Microsystems, THUNDER Imager 3D Cell Culture) and confocal microscope (Leica SPE).

residual CNF removed from organoid surface [2]	Compound	cleaved caspase-3 expression (apoptosis) in adjacent neural organoids [1]	cleaved caspase-3 expression (apoptosis) in adjacent neural organoids ([1]; listed as Panobinostat)	viscosity and storage modulus of CNF support after cellulase [3]	organoid viability [4]
	Cc1[nH]c2ccccc2c1CCNCc1ccc(/C=C/C(=O)NO)cc1 [panobinostat]	did not exhibit substantially increased cleaved caspase-3 expression	does not induce substantial apoptosis		
over 98%	cellulase			stepwise decreases in both viscosity and storage modulus	does not affect organoid viability

From US12698463B2, “Spatially controlled fabrication of multi-spheroid tissues using magnetic bioprinting” (The Board of Trustees of the Leland Stanford Junior …, priority 2022, dated 2026)
